# From patent publication US4354039A, “Chlorocitric acids” (Hoffmann-La Roche Inc., priority 1981, dated 1982)
# Like-named read-outs stand apart in the source and are kept apart here.
# Legend:
# [1] = Effect of stereoisomers on food consumption of meal-fed rats (Example 14); type: in vivo, Charles River female rats
# Procedure: Animals were fasted 48 hr, then meal-fed the 70% glucose diet described by A. C. […] Following 5 to 12 days alimentation on the meal-feeding regimen, rats were dosed with the appropriate compounds orally by intubation 1/2 hr before the 3 hr meal. Food cups were weighed immediately after the meal. The control group consisted of 5 to 10 rats, while the experimental group consisted of 4 to 6 rats.
# [2] = Effect on stomach emptying, [14C] glucose load (Example 25); type: in vivo, Rats; settings: 0.33 mmoles/kg oral, 60 min after [14C] glucose load
# Procedure: Rats were trained to consume a 3 hr 70% glucose meal from 8 a.m. to 11 a.m. daily. On the experimental day, compounds were administered orally by intubation 30 min before a [^14 C] glucose load was given also by intubation. […] Sixty minutes later the rats were killed by decapitation; blood and stomachs were collected on ice.
# Data are expressed as follows: dpm×10^3 per ml of serum and dpm×10^3 per stomach.
# isolated rat hepatocytes = assay: Fatty acid and cholesterol synthesis and CO2 production in isolated hepatocytes (Example 23); type: cell-based, Female Charles River rats; settings: 2 mM, 60 min, 37° C.; for activity at 2000 µM: Rattus norvegicus, Hepatocyte, 1 h
# Procedure: Female Charles River rats were fasted 48 hr, then meal-fed a 1% corn oil, 70% glucose diet for 7 to 14 days from 8 to 11 a.m. The isolated rat hepatocytes were prepared by perfusing the liver in situ. The hepatocytes were incubated in an oscillating water bath at 37° C. for 60 min. […] All incubations were done in triplicate and all experiments were repeated at least twice. […] The contents of the center well were transferred to scintillation counting fluid and ^14 CO2 content was determined. […] The media was then acidified, extracted with hexane, and the extract counted (to determine the rate of lipogenesis). The conversion of ^3 H2 O and [^14 C]alanine into fatty acids or sterols was determined in a PDS/3, Mark II liquid scintillation counting system.
# [3] = Food intake in dogs, pyramiding oral doses (Examples 26 and 27); type: in vivo, beagle dogs
# Procedure: Twelve beagle dogs of both sexes weighing 7.6-12.2 kg were used for this test. The test compounds were contained in gelatin capsules for oral administration to two dogs of each sex. The animals were weighed and food consumption calculated daily excluding weekends throughout the test period. Each animal received 800 grams of diet daily consisting of 400 grams of Wayne pellet dog food mixed with 400 ml distilled water. The animals received pyramiding oral doses of the test compound over the three week period. On Monday and Tuesday of the first week the animals were weighed and food consumption was recorded (control). […] Doses of 30, 100 and 300 mg/kg were administered on Monday, Wednesday and Friday respectively during the second week. A final dose of 1000 mg/kg was administered on Monday of the third week.
# Food intake was determined by the procedure at pyramiding doses described in EXAMPLE 26.
# [4] = Anorectic activities of stereoisomers, 3-day food consumption and body weight gain (Example 16); type: in vivo, Charles River female rats; settings: 1.32 mmoles/kg oral, 3 days
# Procedure: Charles River female rats (Charles River Breeding Laboratories, Wilmington, Mass.), weighing 196 to 210 g, were individually housed in wire-bottomed cages in a temperature-regulated (22° C.) light-controlled room (12 hr light, 6 a.m. to 6 p.m. and 12 hr dark, 6 p.m. to 6 a.m.). Animals were fasted 48 hr, then meal-fed a 70% glucose diet from 8 to 11 a.m. Following 5 to 12 days alimentation on the meal-feeding regimen, rats were dosed with the appropriate compounds orally by intubation 1/2 hr before the 3 hr meal for 3 days. The total food consumption and body weight gained during the 3 day period were determined. The control group consisted of 16 rats, while the experimental group consists of 8 rats.
# [5] = test day 8, dose 100 mg/kg oral
# [6] = test day 10, dose 300 mg/kg oral
# [7] = test day 13, dose 1000 mg/kg oral
structure (smiles),measurement,setting,value
O=C(O)C[C@](O)(C(=O)O)[C@H](Cl)C(=O)O [(+)-threo-Chlorocitric acid],"Food Consumption, % of control",[1]; 0.66 mmoles/kg oral,83 % of control
same,"Food Consumption, % of control",[1]; 2.63 mmoles/kg oral,38 % of control
same,"Serum, % of control",[2],60 % of control
same,"Stomach Contents, % of control",[2],220 % of control
same,"CO2 Production, [14C]alanine converted",isolated rat hepatocytes; 2000 µM,100 % of control
same,"Cholesterol Synthesis, [14C]alanine converted",isolated rat hepatocytes; 2000 µM,88 % of control
same,"Fatty Acid Synthesis, 3H2O converted",isolated rat hepatocytes; 2000 µM,94 % of control
same,"Fatty Acid Synthesis, [14C]alanine converted",isolated rat hepatocytes; 2000 µM,97 % of control
same,activity at 2000 µM,"isolated rat hepatocytes; read-out: CO2 Production, [14C]alanine converted",114%
same,activity at 2000 µM,"isolated rat hepatocytes; read-out: Cholesterol Synthesis, [14C]alanine converted",69%
same,activity at 2000 µM,"isolated rat hepatocytes; read-out: Fatty Acid Synthesis, 3H2O converted",93%
same,activity at 2000 µM,"isolated rat hepatocytes; read-out: Fatty Acid Synthesis, [14C]alanine converted",102%
same,Food Consumption,"[3]; test day 1, dose 3 mg/kg oral",430 ± 109 g
same,"Food Consumption, % of control","[3]; test day 1, dose 3 mg/kg oral",70 % of control
same,Food Consumption,"[3]; test day 2, no dose",502 ± 109 g
same,"Food Consumption, % of control","[3]; test day 2, no dose",82 % of control
same,Food Consumption,"[3]; test day 3, dose 10 mg/kg oral",367 ± 114 g
same,"Food Consumption, % of control","[3]; test day 3, dose 10 mg/kg oral",60 % of control
same,Food Consumption,"[3]; test day 6, dose 30 mg/kg oral",629 ± 64 g
same,"Food Consumption, % of control","[3]; test day 6, dose 30 mg/kg oral",103 % of control
same,Food Consumption,"[3]; test day 7, no dose",397 ± 87 g
same,"Food Consumption, % of control","[3]; test day 7, no dose",65 % of control
same,Food Consumption,[3]; [5],477 ± 75 g
same,"Food Consumption, % of control",[3]; [5],78 % of control
same,Food Consumption,"[3]; test day 9, no dose",585 ± 69 g
same,"Food Consumption, % of control","[3]; test day 9, no dose",96 % of control
same,Food Consumption,[3]; [6],436 ± 60 g
same,"Food Consumption, % of control",[3]; [6],71 % of control
same,Food Consumption,[3]; [7],433 ± 125 g
same,"Food Consumption, % of control",[3]; [7],71 % of control
same,Food Consumption,"[3]; test day 14, no dose",518 ± 19 g
same,"Food Consumption, % of control","[3]; test day 14, no dose",85 % of control
same,Food Consumption,"[3]; test day 15, no dose",622 ± 69 g
same,"Food Consumption, % of control","[3]; test day 15, no dose",102 % of control
same,Food Consumption,"[3]; test day 16, no dose",564 ± 106 g
same,"Food Consumption, % of control","[3]; test day 16, no dose",92 % of control
same,Food Consumption,"[3]; test day 17, no dose",597 ± 36 g
same,"Food Consumption, % of control","[3]; test day 17, no dose",98 % of control
same,Food Consumption,"[3]; test day 21, no dose",578 ± 79 g
same,"Food Consumption, % of control","[3]; test day 21, no dose",95 % of control
same,Food Consumption,"[3]; test day 22, no dose",668 ± 57 g
same,"Food Consumption, % of control","[3]; test day 22, no dose",110 % of control
same,Food Consumption,"[3]; test day 23, no dose",516 ± 66 g
same,"Food Consumption, % of control","[3]; test day 23, no dose",85 % of control
same,Food Consumption,"[3]; test day 24, no dose",539 ± 39 g
same,"Food Consumption, % of control","[3]; test day 24, no dose",88 % of control
same,Food Consumption,"[3]; test day 27, no dose",479 ± 92 g
same,"Food Consumption, % of control","[3]; test day 27, no dose",79 % of control
same,Food Consumption,"[3]; test day 28, no dose",710 ± 91 g
same,"Food Consumption, % of control","[3]; test day 28, no dose",116 % of control
same,"3-Day Body Weight Gain, % of initial body weight",[4],-1.7 % of initial body weight
same,"3-Day Food Consumption, % of control",[4],93 % of control
